{"source": "patent US20070117743A1", "about": "“New antitumoral compounds” (priority 2003, published 2007)", "assay_type_in_all_cases": "cell-based, human", "key": {"[1]": {"test_system": "A-549", "assay": "SRB colorimetric assay of cell growth and viability, A-549", "settings": "48 hours exposure; for GI50: read-out: GI50 A-549; for CC50: read-out: LC50 A-549"}, "[2]": {"test_system": "SK-MEL-28", "assay": "SRB colorimetric assay of cell growth and viability, SK-MEL-28", "settings": "48 hours exposure; for CC50: read-out: LC50 MEL-28"}, "[3]": {"test_system": "HT-29", "assay": "SRB colorimetric assay of cell growth and viability, HT-29", "settings": "48 hours exposure; for GI50: read-out: GI50 HT-29; for CC50: read-out: LC50 HT-29"}, "[4]": {"test_system": "LoVo-Dox", "assay": "SRB colorimetric assay of cell growth and viability, LoVo-Dox", "settings": "LOVO-DOX, 48 hours exposure", "outline": "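After 48 hours continuous exposure to samples spanning 10 to 10^−8 μg/mL, biomass was quantified by sulforhodamine B staining of TCA-fixed cells (OD 490 nm). Cells, 5×10^3 per well in RPMI 1640 10% FBS, had attached 18 hours first; GI, TGI and LC derived from triplicate wells.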"}, "[5]": {"test_system": "DU-145", "assay": "SRB colorimetric assay of cell growth and viability, DU-145", "settings": "48 hours exposure"}, "[6]": {"test_system": "LNCaP", "assay": "SRB colorimetric assay of cell growth and viability, LNCaP", "settings": "48 hours exposure; for CC50: read-out: LC50 LN-caP"}, "[7]": {"test_system": "SK-BR-3", "assay": "SRB colorimetric assay of cell growth and viability, SK-BR-3", "settings": "48 hours exposure"}, "[8]": {"test_system": "IGROV-1", "assay": "SRB colorimetric assay of cell growth and viability, IGROV-1", "settings": "48 hours exposure"}, "[9]": {"test_system": "IGROV-ET", "assay": "SRB colorimetric assay of cell growth and viability, IGROV-ET", "settings": "48 hours exposure; for CC50: read-out: LC50 IGROV-ET"}, "[10]": {"test_system": "HeLa", "assay": "SRB colorimetric assay of cell growth and viability, HeLa", "settings": "48 hours exposure; for CC50: read-out: LC50 HELA"}, "[11]": {"test_system": "HeLa-APL", "assay": "SRB colorimetric assay of cell growth and viability, HeLa-APL", "settings": "48 hours exposure; for CC50: read-out: LC50 HELA-APL"}, "[12]": {"test_system": "K-562", "assay": "SRB colorimetric assay of cell growth and viability, K-562", "settings": "48 hours exposure; for CC50: read-out: LC50 K-562"}, "[13]": {"test_system": "PANC-1", "assay": "SRB colorimetric assay of cell growth and viability, PANC-1", "settings": "48 hours exposure; for CC50: read-out: LC50 PANC-1"}, "[14]": {"test_system": "LoVo", "assay": "SRB colorimetric assay of cell growth and viability, LoVo", "settings": "48 hours exposure"}}, "note": "Where two headings read alike, the source gives them in different places."}
{"smiles": "C/C=C1\\NC(=O)[C@H](Cc2ccccc2)NC(=O)[C@@H](C(C)C)NC(=O)[C@@H]([C@@H](C)CC)NC(=O)[C@H](NC(=O)[C@H](NC(=O)[C@H](CCCN)NC(=O)[C@H]2CCCN2C(=O)[C@H](NC(=O)[C@@H](NC(=O)[C@@H](NC(=O)[C@@H](CCCN)NC(=O)CCCC(C)C)[C@@H](C)O)C(C)C)C(C)C)[C@@H](C)CC)[C@@H](C)OC(=O)[C@H](C(C)C)NC1=O", "note": "[Compound 118, [D-Orn^13]-KF]", "values": [{"measurement": "TGI A-549", "setting": "[1]; A-549", "value": "4.21E−06", "unit": "Molar"}, {"measurement": "GI50", "setting": "[1]; A-549", "value": 1.96, "unit": "µM"}, {"measurement": "CC50", "setting": "[1]; A-549", "value": 6.7, "unit": "µM"}, {"measurement": "GI50", "setting": "[2]; MEL-28", "value": 1.49, "unit": "µM"}, {"measurement": "TGI MEL-28", "setting": "[2]; MEL-28", "value": "2.88E−06", "unit": "Molar"}, {"measurement": "CC50", "setting": "[2]; MEL-28", "value": 5.55, "unit": "µM"}, {"measurement": "TGI HT-29", "setting": "[3]; HT-29", "value": "2.84E−06", "unit": "Molar"}, {"measurement": "GI50", "setting": "[3]; HT-29", "value": 1.2, "unit": "µM"}, {"measurement": "CC50", "setting": "[3]; HT-29", "value": 6.7, "unit": "µM"}, {"measurement": "GI50", "setting": "[4]", "value": 1.59, "unit": "µM"}, {"measurement": "TGI LOVO-DOX", "setting": "[4]", "value": "3.28E−06", "unit": "Molar"}, {"measurement": "CC50", "setting": "[4]; read-out: LC50 LOVO-DOX", "value": 6.7, "unit": "µM"}, {"measurement": "GI50", "setting": "[5]; DU-145", "value": 1.86, "unit": "µM"}, {"measurement": "LC50 (concentration causing 50% net cell kill)", "setting": "[5]; DU-145", "value": 6.7, "unit": "µM"}, {"measurement": "TGI DU-145", "setting": "[5]; DU-145", "value": "3.84E−06", "unit": "Molar"}, {"measurement": "GI50", "setting": "[6]; LN-caP", "value": 2.87, "unit": "µM"}, {"measurement": "TGI LN-caP", "setting": "[6]; LN-caP", "value": "6.70E−06", "unit": "Molar"}, {"measurement": "CC50", "setting": "[6]; LN-caP", "value": 6.7, "unit": "µM"}, {"measurement": "GI50", "setting": "[7]; SK-BR-3", "value": 0.851, "unit": "µM"}, {"measurement": "LC50", "setting": "[7]; SK-BR-3", "value": 4.42, "unit": "µM"}, {"measurement": "TGI SK-BR-3", "setting": "[7]; SK-BR-3", "value": "1.94E−06", "unit": "Molar"}, {"measurement": "GI50", "setting": "[8]; IGROV", "value": 1.45, "unit": "µM"}, {"measurement": "LC50 (concentration causing 50% net cell killing)", "setting": "[8]; IGROV", "value": 5.24, "unit": "µM"}, {"measurement": "TGI IGROV", "setting": "[8]; IGROV", "value": "2.76E−06", "unit": "Molar"}, {"measurement": "GI50", "setting": "[9]; IGROV-ET", "value": 1.85, "unit": "µM"}, {"measurement": "TGI IGROV-ET", "setting": "[9]; IGROV-ET", "value": "3.74E−06", "unit": "Molar"}, {"measurement": "CC50", "setting": "[9]; IGROV-ET", "value": 6.7, "unit": "µM"}, {"measurement": "GI50", "setting": "[10]; HELA", "value": 1.57, "unit": "µM"}, {"measurement": "TGI HELA", "setting": "[10]; HELA", "value": "3.30E−06", "unit": "Molar"}, {"measurement": "CC50", "setting": "[10]; HELA", "value": 6.7, "unit": "µM"}, {"measurement": "GI50", "setting": "[11]; HELA-APL", "value": 1.86, "unit": "µM"}, {"measurement": "TGI HELA-APL", "setting": "[11]; HELA-APL", "value": "4.15E−06", "unit": "Molar"}, {"measurement": "CC50", "setting": "[11]; HELA-APL", "value": 6.7, "unit": "µM"}, {"measurement": "GI50", "setting": "[12]; K-562", "value": 1.6, "unit": "µM"}, {"measurement": "TGI K-562", "setting": "[12]; K-562", "value": "3.92E−06", "unit": "Molar"}, {"measurement": "CC50", "setting": "[12]; K-562", "value": 6.7, "unit": "µM"}, {"measurement": "GI50", "setting": "[13]; PANC-1", "value": 2.09, "unit": "µM"}, {"measurement": "TGI PANC-1", "setting": "[13]; PANC-1", "value": "4.74E−06", "unit": "Molar"}, {"measurement": "CC50", "setting": "[13]; PANC-1", "value": 6.7, "unit": "µM"}]}
{"smiles": "C/C=C1\\NC(=O)[C@H](Cc2ccccc2)NC(=O)[C@@H](C(C)C)NC(=O)[C@@H]([C@@H](C)CC)NC(=O)[C@H](NC(=O)[C@H](NC(=O)[C@H](CCCN)NC(=O)[C@H]2CCCN2C(=O)[C@H](NC(=O)[C@@H](NC(=O)[C@@H](NC(=O)[C@H](NC(=O)c2ccccc2)C(C)C)[C@@H](C)O)C(C)C)C(C)C)[C@@H](C)CC)[C@@H](C)OC(=O)[C@H](C(C)C)NC1=O", "note": "[Compound 20, [Bza^14]-KF]", "values": [{"measurement": "TGI A-549", "setting": "[1]", "value": "1.95E−06", "unit": "Molar"}, {"measurement": "GI50", "setting": "[1]", "value": 0.952, "unit": "µM"}, {"measurement": "CC50", "setting": "[1]", "value": 3.97, "unit": "µM"}, {"measurement": "GI50", "setting": "[2]", "value": 1.2, "unit": "µM"}, {"measurement": "TGI MEL-28", "setting": "[2]", "value": "2.26E−06", "unit": "Molar"}, {"measurement": "CC50", "setting": "[2]", "value": 4.23, "unit": "µM"}, {"measurement": "TGI HT-29", "setting": "[3]", "value": "1.64E−06", "unit": "Molar"}, {"measurement": "GI50", "setting": "[3]", "value": 0.694, "unit": "µM"}, {"measurement": "CC50", "setting": "[3]", "value": 3.88, "unit": "µM"}, {"measurement": "GI50", "setting": "[14]", "value": 0.128, "unit": "µM"}, {"measurement": "TGI LOVO", "setting": "[14]", "value": "3.03E−07", "unit": "Molar"}, {"measurement": "CC50", "setting": "[14]; read-out: LC50 LOVO", "value": 0.81, "unit": "µM"}, {"measurement": "GI50", "setting": "[5]", "value": 0.939, "unit": "µM"}, {"measurement": "LC50 (concentration causing 50% net cell kill)", "setting": "[5]", "value": 4.25, "unit": "µM"}, {"measurement": "TGI DU-145", "setting": "[5]", "value": "1.99E−06", "unit": "Molar"}, {"measurement": "TGI LN-caP", "setting": "[6]", "value": "2.87E−06", "unit": "Molar"}, {"measurement": "GI50", "setting": "[6]; read-out: GI50 LN-caP", "value": 1.18, "unit": "µM"}, {"measurement": "CC50", "setting": "[6]", "value": 6.8, "unit": "µM"}, {"measurement": "GI50", "setting": "[7]", "value": 0.32, "unit": "µM"}, {"measurement": "LC50", "setting": "[7]", "value": 3.38, "unit": "µM"}, {"measurement": "TGI SK-BR-3", "setting": "[7]", "value": "1.16E−06", "unit": "Molar"}, {"measurement": "GI50", "setting": "[8]", "value": 0.714, "unit": "µM"}, {"measurement": "LC50 (concentration causing 50% net cell killing)", "setting": "[8]", "value": 4.2, "unit": "µM"}, {"measurement": "TGI IGROV", "setting": "[8]", "value": "1.73E−06", "unit": "Molar"}, {"measurement": "GI50", "setting": "[9]", "value": 0.755, "unit": "µM"}, {"measurement": "TGI IGROV-ET", "setting": "[9]", "value": "1.78E−06", "unit": "Molar"}, {"measurement": "CC50", "setting": "[9]", "value": 4.2, "unit": "µM"}, {"measurement": "GI50", "setting": "[10]", "value": 1.11, "unit": "µM"}, {"measurement": "TGI HELA", "setting": "[10]", "value": "2.30E−06", "unit": "Molar"}, {"measurement": "CC50", "setting": "[10]", "value": 4.76, "unit": "µM"}, {"measurement": "GI50", "setting": "[11]", "value": 1.01, "unit": "µM"}, {"measurement": "TGI HELA-APL", "setting": "[11]", "value": "2.08E−06", "unit": "Molar"}, {"measurement": "CC50", "setting": "[11]", "value": 4.27, "unit": "µM"}, {"measurement": "GI50", "setting": "[12]", "value": 0.305, "unit": "µM"}, {"measurement": "TGI K-562", "setting": "[12]", "value": "2.12E−06", "unit": "Molar"}, {"measurement": "CC50", "setting": "[12]", "value": 6.8, "unit": "µM"}, {"measurement": "GI50", "setting": "[13]", "value": 3.79, "unit": "µM"}, {"measurement": "TGI PANC-1", "setting": "[13]", "value": "6.80E−06", "unit": "Molar"}, {"measurement": "CC50", "setting": "[13]", "value": 6.8, "unit": "µM"}]}
